The text below walks through data of patent publication US10208067B2, “Compounds for treating spinal muscular atrophy” (Hoffmann-La Roche Inc., priority 2015, dated 2019).

The subject of experiment [1] is SMN protein in SMA patient fibroblast cells (GM03813). Description: SMN protein assay (HTRF) in cultured cells. The experiment is classed as cell-based. Particulars: Homo sapiens, SMA Type 1 patient fibroblasts, 48 hours; for EC (1.5-fold): concentration producing 1.5 times SMN protein vs vehicle, read-out: EC1.5x SMN protein; for maximal fold induction: relative to vehicle control, read-out: max. fold increase of SMN protein. As to the method: The SMN HTRF (homogeneous time resolved fluorescence) assay is used to quantify the level of SMN protein in SMA patient fibroblast cells treated with test compounds. Materials used and respective sources are listed below in Table 4.
Cells are thawed and cultured in DMEM-10% FBS for 72 hours. Cells are trypsinized, counted and re-suspended to a concentration of 25,000 cells/mL in DMEM-10% FBS. The cell suspensions are plated at 5,000 cells per well in a 96 well microtiter plate and incubated for […]. […] 1 μL of test compound solution is transferred to cell-containing wells and cells are incubated for 48 hours in a cell culture incubator (37° C., 5% CO2, 100% relative humidity). Triplicate samples are set up for each test compound concentration. After 48 hours, the supernatant is removed from the wells and 25 μL of the RIPA lysis buffer, containing protease inhibitors, is added to the wells and incubated with shaking at room temperature for 1 hour. 25 μL of the diluent is added and then 35 μL of the resulting lysate is transferred to a 384-well plate, where each well contains 5 μL of the antibody solution (1:100 dilution of anti-SMN d2 and anti-SMN cryptate in SMN reconstitution buffer). The plate is centrifuged for 1 minute to bring the solution to the bottom of the wells, then incubated overnight at room temperature. Fluorescence for each well of the plate at 665 nm and 620 nm is measured on an EnVision multilabel plate reader (Perkin-Elmer).
The normalized fluorescence signal is calculated for each sample, Blank and vehicle control well by dividing the signal at 665 nm by the signal at 620 nm. Normalizing the signal accounts for possible fluorescence quenching due to the matrix effect of the lysate. The ΔF value (a measurement of SMN protein abundance as a percent value) for each sample well is calculated by subtracting the normalized average fluorescence for the Blank control wells from the normalized fluorescence for each sample well, then dividing this difference by the normalized average fluorescence for the Blank control wells and multiplying the resulting value by 100. The ΔF value for each sample well represents the SMN protein abundance from test compound-treated samples. The ΔF value for each sample well is divided by the ΔF value for the vehicle control wells to calculate the fold increase in SMN protein abundance relative to the vehicle control. Table 5 provides EC1-5× concentrations for SMN protein expression that was obtained from the 7-point concentration data generated according to the above procedure for particular compounds of the present invention.
Table 6 provides the maximum fold increase of SMN protein that was obtained from the 7-point concentration data generated according to the above procedure for particular compounds of the present invention

The test system of experiment [2] is full length SMN2 minigene mRNA (HEK293H cells stably transfected with SMN2-A minigene). Kind of experiment: RT-qPCR assay for SMN2 minigene pre-mRNA splicing in cultured cells. Particulars: Homo sapiens, HEK293-H, Table 3 (title: production of full length SMN2 minigene mRNA), 24 hours, read-out: EC1.5x SMN protein. In kind it is cell-based.

The structures appear in SMILES notation.

Take `Cc1nc2ccc(-c3cc(=O)n4cc(N5CC[C@@H](N(C)C)C5)ccc4n3)nn2n1` [Example 41, 7-[(3R)-3-(dimethylamino)pyrrolidin-1-yl]-2-(2-methyl-[1,2,4]triazolo[1,5-b]pyridazin-6-yl)pyrido[1,2-a]pyrimidin-4-one]: the values for the EC (1.5-fold) in experiment [1] and in experiment [2] were 0.207 µM and 0.163 µM, respectively. Moreover, the maximal fold induction in experiment [1] is 1.75.

Consider `Cc1nc2ccc(-c3cc(=O)n4cc(N5C[C@H](C)N[C@@H](C)C5)ccc4n3)nn2n1` [Example 42, 7-[(3S,5S)-3,5-dimethylpiperazin-1-yl]-2-(2-methyl-[1,2,4]triazolo[1,5-b]pyridazin-6-yl)pyrido[1,2-a]pyrimidin-4-one], for which, in experiment [1], the EC (1.5-fold) was determined as 0.0629 µM and the maximal fold induction amounted to 1.81. In experiment [2], the EC (1.5-fold) came out at 0.0083 µM.

Take `CCN1CCN(c2ccc3nc(-c4ccc5nc(C)nn5n4)cc(=O)n3c2)CC1` [Example 43, 7-(4-ethylpiperazin-1-yl)-2-(2-methyl-[1,2,4]triazolo[1,5-b]pyridazin-6-yl)pyrido[1,2-a]pyrimidin-4-one]: in experiment [1], the EC (1.5-fold) was 0.0562 µM and the maximal fold induction was 2.02. Besides, in experiment [2], the EC (1.5-fold) amounted to 0.0328 µM.

Turning to `Cc1nc2ccc(-c3cc(=O)n4cc(N5CCNC6(CC6)C5)ccc4n3)nn2n1` [Example 44, 7-(4,7-diazaspiro[2.5]octan-7-yl)-2-(2-methyl-[1,2,4]triazolo[1,5-b]pyridazin-6-yl)pyrido[1,2-a]pyrimidin-4-one], in experiment [1], the EC (1.5-fold) is 0.265 µM and the maximal fold induction was 2.02. Besides, the EC (1.5-fold) in experiment [2] amounted to 0.0578 µM.

Take `Cc1nc2ccc(-c3cc(=O)n4cc(N5CCN[C@@H](C)C5)cc(C)c4n3)nn2n1` [Example 45, 9-methyl-7-[(3S)-3-methylpiperazin-1-yl]-2-(2-methyl-[1,2,4]triazolo[1,5-b]pyridazin-6-yl)pyrido[1,2-a]pyrimidin-4-one]: the EC (1.5-fold) in experiment [1] turned out to be 0.009 µM; in experiment [2], 0.0008 µM. Also, in experiment [1], the maximal fold induction stood at 2.04.

In the case of `Cc1nc2ccc(-c3cc(=O)n4cc(N5CC6(CN(C)C6)C5)ccc4n3)nn2n1` [Example 46, 7-(6-methyl-2,6-diazaspiro[3.3]heptan-2-yl)-2-(2-methyl-[1,2,4]triazolo[1,5-b]pyridazin-6-yl)pyrido[1,2-a]pyrimidin-4-one], in experiment [1], the EC (1.5-fold) came out at 0.0314 µM and the maximal fold induction was 1.75. Moreover, in experiment [2], the EC (1.5-fold) came to 0.003 µM.

Consider `Cc1nc2ccc(-c3cc(=O)n4cc(N5C[C@@H]6C[C@H]7CNC[C@]76C5)ccc4n3)nn2n1` [Example 47, 7-((3aR,4aR,7aS)-hexahydro-1H-cyclobuta[1,2-c:1,4-c′]dipyrrol-2(3H)-yl)-2-(2-methyl-[1,2,4]triazolo[1,5-b]pyridazin-6-yl)-4H-pyrido[1,2-a]pyrimidin-4-one], for which, in experiment [1], the EC (1.5-fold) worked out at 0.0249 µM and the maximal fold induction is 1.87. The EC (1.5-fold) in experiment [2] amounted to 0.0041 µM.

Consider `Cc1nc2ccc(-c3cc(=O)n4cc(N5CC6(CCNC6)C5)cc(C)c4n3)nn2n1` [Example 48, 7-(2,7-diazaspiro[3.4]octan-2-yl)-9-methyl-2-(2-methyl-[1,2,4]triazolo[1,5-b]pyridazin-6-yl)pyrido[1,2-a]pyrimidin-4-one], for which, in experiment [1], the EC (1.5-fold) stood at 1.32 µM and the maximal fold induction amounted to 1.68. For the same molecule, the EC (1.5-fold) in experiment [2] was found to be 0.168 µM.
